According to patent US7056903B2, “Carboxylic acid derivatives as IP antagonists” (Syntex (U.S.A.) LLC, priority 2000, dated 2006):

For `O=C(N[C@H](Cc1ccccc1)C(=O)O)OCc1cc2cc(-c3ccc(F)cc3)ccc2o1` (hydrate or solvate) [Compound 91, (R)-2-[5-(4-fluoro-phenyl)-benzofuran-2-ylmethoxycarbonylamino]-3-phenyl-propionic acid], which melting point is on record?
The melting point was 129.5 to 131.5 °C.

For `O=C(N[C@H](Cc1ccccc1)C(=O)O)OCc1cc2cc(-c3ccc(F)c(F)c3)ccc2o1` [Compound 104, (R)-2-[5-(3,4-Difluoro-phenyl)-benzofuran-2-ylmethoxycarbonylamino]-3-phenyl-propionic acid], which melting point is on record?
The melting point was 98.9 to 101.7 °C.

Which melting point does the source give for `O=C(NC(Cc1ccccc1)C(=O)O)OCCCc1ccc(-c2ccccc2)cc1` (stereo not drawn) [Compound 143, 2-(3-biphenyl-4-yl-propoxycarbonylamino)-3-phenyl-propionic acid] here?
Its melting point is 139.1 to 139.9 °C.

With `O=C(N[C@H](Cc1ccc(F)cc1)C(=O)O)OCc1cc2cc(-c3ccccc3Cl)ccc2o1` [Compound 115, (R)-2-[5-(2-chloro-phenyl)-benzofuran-2-ylmethoxycarbonylamino]-3-(4-fluoro-phenyl)-propionic acid] as the compound, how does the melting point read?
Its melting point is 86.7 to 100.1 °C.

With `O=C(O)CC(Cc1ccccc1)NC(=O)OCc1cc2cc(-c3ccccc3)ccc2o1` (stereo not drawn) [Compound 110, 4-phenyl-3-(5-phenyl-benzofuran-2-ylmethoxycarbonylamino)-butyric acid] as the compound, how does the melting point read?
The melting point was 168 to 169.8 °C.

With `O=C(N[C@H](Cc1ccc(Cl)cc1)C(=O)O)OCc1cc2cc(-c3ccc(F)cc3)ccc2o1` [Compound 118, (R)-3-(4-chloro-phenyl)-2-[5-(4-fluoro-phenyl)-benzofuran-2-ylmethoxycarbonylamino]-propionic acid] as the compound, how does the melting point read?
The melting point was 130 to 154.5 °C.
